What was measured:
[1] = target: T1, KSHV Pr (Human herpesvirus 8 type P, UniProt Q2HRB6, S204G); test: Inhibition kinetics; assay type: biochemical, human Kaposi's sarcoma-associated herpesvirus (KSHV)
[2] = target: KSHV Pr dimer (Human herpesvirus 8 type P, UniProt Q2HRB6, S204G); assay type: binding
[3] = Dynamic light scattering for particle formation; assay type: physicochemical
[4] = target: wt KSHV Pr (Human herpesvirus 8 type P, UniProt Q2HRB6, S204G); assay type: binding; settings: 23 μM 13C-Met wt KSHV Pr, 1 molar equivalence inhibitor (24 μM)
[5] = target: T1, KSHV Pr; assay type: biochemical, human Kaposi's sarcoma-associated herpesvirus (KSHV); settings: substitution from meta position to para or ortho
[6] = test system: p53-MDM2; settings: cited from earlier work
[7] = 1 -10 μM concentration range of DD2

## O=C(O)c1ccc(NC(=O)c2cccc(CC3CCCCC3)n2)c(Cc2ccccc2)c1 [Compound 2]
[1]; [7]
  decrease in Vmax: 3 fold
  increase in KM: 2.5 fold
[1]; Lineweaver–Burk analysis
  type of inhibition: mixed-type inhibitor
[2]; 5 μM wt KSHV Pr pre-incubated with 30 μM compound
  elution profile of KSHV Pr (dimerization state): eluted predominantly as a monomer
[3]
  particle formation by dynamic light scattering: did not show evidence of particle formation
[4]
  M197-dimer peak in 1H-13C HSQC: broadens beyond detection

## O=C(O)c1ccc(NC(=O)c2ccccc2CC2CCCCC2)c(Cc2ccccc2)c1 [Compound 5]
[5]
  effect of moving the cyclohexylmethyl side chain on inhibition (SAR): diminished inhibition

## O=C(O)c1ccc(NC(=O)c2ccc(CC3CCCCC3)cc2)c(Cc2ccccc2)c1 [Compound 4]
[5]
  effect of moving the cyclohexylmethyl side chain on inhibition (SAR): diminished inhibition

## O=C(O)c1ccc(NC(=O)c2cccc(CC3CCCCC3)c2)c(Cc2ccccc2)c1 [Compound 1]
[6]
  inhibition of the interaction of p53-MDM2: not found to inhibit
[2]; data not shown
  results in size exclusion chromatography and HSQC experiments compared with DD2: produced similar results

Source: PMC2752665 (Nature chemical biology, 2009)
